Activity calls are given as the source filed them. No cut-off for these calls is given here.
Key:
A549 [1] = test: Antimetastatic activity against human A549 cells assessed as reduction in MMP-9 expression at 100 uM preincubated with SNP for 3 hrs followed by compound addition and measured after 24 hrs by gelatin zymography; format: functional, cell-based
A-375 [2] = test: Antiinflammatory activity against human A-375 cells assessed as reduction in COX-2 expression at 100 uM preincubated with SNP for 3 hrs followed by compound addition and measured after 24 hrs by Western blot analysis; format: functional, cell-based
A549 [3] = test: Antimetastatic activity against human A549 cells assessed as reduction in MMP-2 expression at 100 uM preincubated with SNP for 3 hrs followed by compound addition and measured after 24 hrs by gelatin zymography; format: functional, cell-based
[4] = Cytotoxicity against rabbit articular chondrocytes incubated for 24 hrs by MTT assay; format: toxicity, cell-based, Oryctolagus cuniculus, Chondrocyte
A-375 [5] = test: Antimetastatic activity against human A-375 cells assessed as reduction in MMP-9 expression at 100 uM preincubated with SNP for 3 hrs followed by compound addition and measured after 24 hrs by gelatin zymography; format: functional, cell-based
A-375 [6] = test: Antiproliferative activity against human A-375 cells incubated for 24 hrs by MTT assay; format: functional, cell-based; settings: A-375, 24 h
A-375 [7] = test: Antimetastatic activity against human A-375 cells assessed as reduction in MMP-2 expression at 100 uM preincubated with SNP for 3 hrs followed by compound addition and measured after 24 hrs by gelatin zymography; format: functional, cell-based
[8] = Selectivity index, ratio of IC50 for rabbit articular chondrocytes to IC50 for human A-375
A549 [9] = test: Antiinflammatory activity against human A549 cells assessed as reduction in COX-2 expression at 100 uM preincubated with SNP for 3 hrs followed by compound addition and measured after 24 hrs by Western blot analysis; format: functional, cell-based
A549 [10] = test: Antiproliferative activity against human A549 cells incubated for 24 hrs by MTT assay; format: functional, cell-based; settings: A549, 24 h
A-375 [11] = test: Potency index, ratio of erlotinib IC50 to test compound IC50 for human A-375 cells; format: functional
A549 [12] = test: Potency index, ratio of erlotinib IC50 to test compound IC50 for human A549 cells; format: functional

Structure (SMILES): COc1cc(C2CC(c3ccccc3)=NN2c2nc(-c3ccc(Br)cc3)cs2)ccc1OCc1ccccc1 (configuration not stated)
- Activity (A549 [1]): inactive
- Activity (A-375 [2]): Active
- Activity (A549 [3]): inactive
- IC50 at 24 h [4]: 357 µM
- Activity (A-375 [5]): inactive
- IC50 (A-375 [6]): 18.4 µM
- Activity (A-375 [7]): inactive
- Ratio IC50 [8]: 19.4
- Activity (A549 [9]): Active
- IC50 (A549 [10]): 25.9 µM

Structure (SMILES): COc1ccc(C2=NN(c3nc(-c4ccc(Br)cc4)cs3)C(c3ccc(C)cc3)C2)cc1 (configuration not stated)
- Activity (A549 [1]): inactive
- Activity (A549 [3]): inactive
- IC50 at 24 h [4]: 151 µM
- Activity (A-375 [5]): inactive
- IC50 (A-375 [6]): 20.1 µM
- Activity (A-375 [7]): inactive
- Ratio IC50 [8]: 7.53
- IC50 (A549 [10]): 26.1 µM

Structure (SMILES): Clc1ccc(C2CC(c3ccccc3)=NN2c2nc(-c3ccc(Br)cc3)cs2)cc1 (configuration not stated)
- IC50 (A-375 [6]): 42.8 µM
- IC50 (A549 [10]): 52 µM

Structure (SMILES): COc1ccc(C2CC(c3ccccc3)=NN2c2nc(-c3ccc(Br)cc3)cs2)cc1 (configuration not stated)
- IC50 (A-375 [6]): 40.5 µM
- IC50 (A549 [10]): 37.4 µM

Structure (SMILES): COc1ccc(C2=NN(c3nc(-c4ccc(Br)cc4)cs3)C(c3ccc(OCc4ccccc4)c(OC)c3)C2)cc1 (configuration not stated)
- Activity (A549 [1]): inactive
- Activity (A-375 [2]): Active
- Activity (A549 [3]): inactive
- IC50 at 24 h [4]: 435 µM
- Activity (A-375 [5]): inactive
- IC50 (A-375 [6]): 20.6 µM
- Activity (A-375 [7]): inactive
- Ratio IC50 [8]: 21.1
- Activity (A549 [9]): Active
- IC50 (A549 [10]): 27.3 µM

Structure (SMILES): C#Cc1cccc(Nc2ncnc3cc(OCCOC)c(OCCOC)cc23)c1 [ERLOTINIB]
- IC50 at 24 h [4]: 63.5 µM
- IC50 (A-375 [6]): 25.9 µM
- Ratio IC50 [8]: 2.45
- IC50 (A549 [10]): 34.2 µM

Structure (SMILES): Brc1ccc(-c2csc(N3N=C(c4ccccc4)CC3c3ccc(Br)cc3)n2)cc1 (configuration not stated)
- IC50 (A-375 [6]): 97.5 µM
- IC50 (A549 [10]): 74.2 µM

Structure (SMILES): COc1ccc(C2=NN(c3nc(-c4ccc(Br)cc4)cs3)C(c3ccc(F)cc3)C2)cc1 (configuration not stated)
- Activity (A549 [1]): inactive
- Activity (A-375 [2]): Active
- Activity (A549 [3]): inactive
- Ratio IC50 (A-375 [11]): 1.7
- IC50 at 24 h [4]: 146 µM
- Activity (A-375 [5]): inactive
- IC50 (A-375 [6]): 16.1 µM
- Activity (A-375 [7]): inactive
- Ratio IC50 [8]: 9.04
- IC50 (A549 [10]): 20.3 µM
- Ratio IC50 (A549 [12]): 1.7

Structure (SMILES): COc1ccc(C2=NN(c3nc(-c4ccc(Br)cc4)cs3)C(c3ccc(OC)cc3)C2)cc1 (configuration not stated)
- IC50 (A-375 [6]): 45.1 µM
- IC50 (A549 [10]): 51.8 µM

Structure (SMILES): COc1ccc(C2=NN(c3nc(-c4ccc(Br)cc4)cs3)C(c3ccc(Br)cc3)C2)cc1 (configuration not stated)
- IC50 (A-375 [6]): 31.6 µM
- IC50 (A549 [10]): 45.7 µM

Structure (SMILES): COc1ccc(C2=NN(c3nc(-c4ccc(Br)cc4)cs3)C(c3ccc(Cl)cc3)C2)cc1 (configuration not stated)
- IC50 (A-375 [6]): 55.7 µM
- IC50 (A549 [10]): 47.8 µM

Structure (SMILES): Cc1ccc(C2CC(c3ccccc3)=NN2c2nc(-c3ccc(Br)cc3)cs2)cc1 (configuration not stated)
- IC50 (A-375 [6]): 103 µM
- IC50 (A549 [10]): 126 µM

— ChEMBL document CHEMBL5236636, “Synthesis, anticancer evaluation, and molecular docking studies of thiazolyl-pyrazoline derivatives” (Bioorg Med Chem Lett, 2023)
